The source of these data is patent US9752151B2, “Composition for treatment or metastasis suppression of cancers which includes p34 expression inhibitor or activity inhibitor as active ingredient” (THE ASAN FOUNDATION, priority 2013, dated 2017).

The test system of data set [1] is PTEN protein. Briefly: Western blotting after co-transfection of GFP-tagged p34 and NEDD4-1-siRNA/shRNA, MEF cells. The settings on record: MEF cells co-transfected with GFP-tagged p34; decreased with GFP-tagged p34 alone. The class given is cell-based, mouse. The method, then: (§1) The expression levels of each protein were analyzed using Western blotting. The result is illustrated in FIG. 23.
On the technique in general: A western blot detects proteins with antibodies after separation by electrophoresis.

Data set [2] has as its system PTEN protein. The data set can be described thus: Western blotting after co-transfection of GFP-tagged p34 and NEDD4-1-siRNA/shRNA, 293 cells. The following applies: 293 cells co-transfected with GFP-tagged p34; decreased with GFP-tagged p34 alone. Format: cell-based. The method, then: as §1
The next data set has as its system MDA-MB-231. The data set can be described thus: Trypan blue dye cell death, MDA-MB-231. The class given is cell-based, human. The settings on record: MDA-MB-231, per each concentration, 48 hours. The method, then:
(§2) Human breast cancer cell lines MDA-MB-231 were treated with the p34 activity inhibitor Compound 27 per each concentration for 48 hours, and then trypan blue dye and Western blotting were performed. The result is illustrated in FIG. 64.

Data set [3] deals with PTEN. The data set can be described thus: PTEN lipid phosphatase activity, LS1034. The class given is cell-based, human. The settings on record: LS1034, 48 hours, OD 650 nm. The method, then:
(§3) Also, human breast cancer cell lines MDA-MB-231 were treated with p34 activity inhibitor Compound 27 per each concentration for 48 hours, and cell sap was collected and immunoprecipitation was performed using a PTEN antibody. Thereafter, it was reacted with a reaction buffer solution (100 mM Tris-HCl pH8.0, 10 mM DTT) containing water-soluble diC8-phosphatidylinositol 3,4,5 tri-phosphate at 37° C. for 40 minutes, and only the supernatant was collected to be reacted with Biomol Green solution at room temperature for 30 minutes. Then, PTEN lipid phosphatase activity was measured at OD 650 nm. The result is illustrated in FIG. 65.
(§4) The same experiments were performed using human colorectal cancer cell lines LS1034. The results are illustrated in FIGS. 66 and 67.

Data set [4] has as its system PTEN protein, Akt, caspase3. The data set can be described thus: Western blotting after p34 activity inhibitor, MDA-MB-231. Format: cell-based, human. The following applies: MDA-MB-231, 48 hours. The method, then: as §2
The test system of data set [5] is PTEN. The data set can be described thus: PTEN lipid phosphatase activity, MDA-MB-231. The class given is cell-based, human. The settings on record: MDA-MB-231, 48 hours, OD 650 nm. The method, then:
as §3

For data set [6], the system named is PTEN. Briefly: PTEN ubiquitination (PTEN immunoprecipitation, ubiquitin Western blotting) in MDA-MB-231. The class given is cell-based, human. The following applies: 1 μM, 24 hours. The method, then:
(§5) The p34 activity inhibitor, Compound 27, in a concentration of 1 μM was treated with human breast cancer cell lines MDA-MB-231 and colorectal cancer cell lines LS1034 for 24 hours, and immunoprecipitation was performed using a PTEN antibody. Thereafter, Western blotting was performed using an ubiquitin antibody. The result is illustrated in FIG. 62.

Data set [7] relates to PTEN. Briefly: PTEN ubiquitination (PTEN immunoprecipitation, ubiquitin Western blotting) in LS1034. Format: cell-based, human. The following applies: 1 μM, 24 hours. The method, then: as §5
Data set [8] concerns PTEN protein, Akt, caspase3. The data set can be described thus: Western blotting after p34 activity inhibitor, LS1034. The class given is cell-based, human. The following applies: LS1034, 48 hours. The method, then: as §2, §4
A further data set deals with LS1034. The data set can be described thus: Trypan blue dye cell death, LS1034. The settings on record: LS1034, per each concentration, 48 hours. Format: cell-based, human. The method, then: as §2, §4
In data set [9] the target is T1, p34 protein and NEDD4-1 protein (Homo sapiens, UniProt Q9UHV2).
T1 construct: made in house; host or cells: E. coli BL-21 (DE3) (printed for GST-p34 in the earlier pull-down)
T1 sequence (Q9UHV2 1-236): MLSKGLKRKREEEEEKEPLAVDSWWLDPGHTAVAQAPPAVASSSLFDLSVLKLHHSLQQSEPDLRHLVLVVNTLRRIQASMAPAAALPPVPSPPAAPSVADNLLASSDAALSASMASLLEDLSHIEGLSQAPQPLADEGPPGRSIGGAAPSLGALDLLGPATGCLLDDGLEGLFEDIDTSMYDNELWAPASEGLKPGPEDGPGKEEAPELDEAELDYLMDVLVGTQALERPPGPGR
Briefly: GST-pull down of p34 and NEDD4-1 proteins binding. The settings on record: 1 mM or 3 mM, 30° C., 1 hour, purified proteins. The method, then:
Purified NEDD4-1 protein and p34 protein were treated with a reaction buffer (20 mM Tris-HCl pH7.5, 120 mM NaCl) and the p34 activity inhibitor Compound 27 in a concentration of 1 mM or 3 mM, and reacted at 30° C. for 1 hour. Thereafter, the reaction was stopped using GST-pull down buffer (20 mM Tris-HCl pH8.0, 500 mM NaCl, 1% Triton X-100, 0.02% BSA, 5 mM mercaptoethanol), and then pulled down with glutathione-sepharose beads at 4° C. Western blotting was performed using anti-His and anti-GST antibodies. The result is illustrated in FIG. 63.

Data set [10] has as its target T2, GST-PTEN fusion protein (UniProt P60484 1-403).
T2 construct: Purified recombinant protein; also called purified recombinant GST-PTEN; not shown: GST tag
Briefly: GST pull-down with purified recombinant GST-PTEN, Western blotting (FIG. 8).

Data set [11] deals with T3, GST-tagged NEDD4-1 mutant lacking WW1 domain (GST-delWW1) (UniProt P46934-4 1-900, limits assumed).
T3 construct: also called NEDD4-1 protein lacking the WW1 domain; not shown: GST tag
T3 sequence (looked up): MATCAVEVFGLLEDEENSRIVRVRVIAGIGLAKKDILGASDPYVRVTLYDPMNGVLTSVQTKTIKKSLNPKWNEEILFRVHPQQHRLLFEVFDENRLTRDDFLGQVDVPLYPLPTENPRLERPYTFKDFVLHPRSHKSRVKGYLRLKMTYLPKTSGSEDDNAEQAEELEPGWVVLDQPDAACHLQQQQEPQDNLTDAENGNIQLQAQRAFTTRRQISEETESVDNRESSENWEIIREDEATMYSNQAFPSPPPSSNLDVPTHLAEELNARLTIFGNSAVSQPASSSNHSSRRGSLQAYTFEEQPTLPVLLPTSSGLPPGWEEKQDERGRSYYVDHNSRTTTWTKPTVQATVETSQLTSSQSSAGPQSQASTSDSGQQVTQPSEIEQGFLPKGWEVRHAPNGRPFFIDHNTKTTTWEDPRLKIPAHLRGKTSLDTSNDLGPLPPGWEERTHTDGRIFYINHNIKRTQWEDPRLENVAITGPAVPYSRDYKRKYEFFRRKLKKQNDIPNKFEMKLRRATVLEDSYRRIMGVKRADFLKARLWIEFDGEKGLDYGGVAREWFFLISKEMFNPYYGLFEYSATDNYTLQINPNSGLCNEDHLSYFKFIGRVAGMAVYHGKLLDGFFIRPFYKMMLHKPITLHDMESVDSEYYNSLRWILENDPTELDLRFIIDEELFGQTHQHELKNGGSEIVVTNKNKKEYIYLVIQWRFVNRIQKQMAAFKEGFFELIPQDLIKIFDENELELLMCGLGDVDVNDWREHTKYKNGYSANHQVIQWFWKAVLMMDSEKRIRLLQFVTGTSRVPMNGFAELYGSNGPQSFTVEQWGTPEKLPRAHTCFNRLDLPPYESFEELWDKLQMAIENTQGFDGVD
The data set can be described thus: GST pull-down of GST-delWW1 with lysate of cells expressing His-p34 (FIG. 10). The method, then: (2) In order to verify the above result, plasmids containing GST-tagged wild-type NEDD4-1 mutants lacking WW1 domain (GST-delWW1) were prepared. The mutant proteins of NEDD4-1 were incubated with a lysing solution isolated from cells expressing His-p34, and then GST-pull down assay was performed. The result is illustrated in FIG. 10.

Data set [12] deals with T2, GST-PTEN fusion protein. Briefly: GST pull-down of GST-PTEN with lysate of cells expressing Myc-NEDD4-1 and His-p34 (FIG. 11). The method, then:
In order to investigate whether p34 affects PTEN and NEDD4-1 binding, GST-PTEN fusion proteins were incubated with the lysing solution of cells expressing Myc-NEDD4-1 and His-p34, and then GST-pull down assay was performed. As a control group, GST proteins were used. The result is illustrated in FIG. 11.

T2 sequence (P60484 whole entry, the tested form may be a part): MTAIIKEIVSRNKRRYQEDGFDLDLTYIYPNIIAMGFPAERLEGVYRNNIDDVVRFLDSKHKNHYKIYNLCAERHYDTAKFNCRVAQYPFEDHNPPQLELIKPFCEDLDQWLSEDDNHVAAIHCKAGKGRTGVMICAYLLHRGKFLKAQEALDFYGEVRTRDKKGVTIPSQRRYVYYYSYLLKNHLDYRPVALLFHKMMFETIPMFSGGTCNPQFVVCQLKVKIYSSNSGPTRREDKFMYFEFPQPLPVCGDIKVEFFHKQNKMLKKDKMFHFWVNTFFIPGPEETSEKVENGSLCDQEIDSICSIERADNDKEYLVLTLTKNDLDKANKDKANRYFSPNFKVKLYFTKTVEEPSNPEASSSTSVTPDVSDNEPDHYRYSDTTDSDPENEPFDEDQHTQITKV

On to “NEDD4-1-siRNA/shRNA: NEDD4-1-siRNA: 5′-TGGCGATTTGTAAACCGAA-3′ (SEQ ID NO 4) (listed as DNA, chemistry not given here)”, for which the “levels of PTEN protein” value in the data set with PTEN protein [1] and in the data set on PTEN protein [2] was “remained substantially unchanged” in each case.

Consider `Cc1[nH]c2ccc(-c3nnc(OCC(=O)NC(C)c4nc5ccccc5[nH]4)o3)cc2c1C` (stereo not drawn) [Compound 27], for which the cell death entry with MDA-MB-231 and in the data set with LS1034 was “cell death was induced” throughout. The “PTEN lipid phosphatase activity” value in the data set on PTEN [3] and in the data set with PTEN [5] was “increased PTEN lipid phosphatase activity” throughout. Also, the Akt dephosphorylation entry in data set [4] and in [8] was “Akt dephosphorylation occurred” each time. The PTEN protein entry in [4] and in data set [8] was “reactivated” each time. In addition, the caspase3 activation entry in data set [4] and in [8] was “caspase3 was activated” throughout. Moreover, the PTEN ubiquitination entry in the data set on PTEN [6] and in the data set on PTEN [7] was “inhibiting PTEN ubiquitination” in each case. In addition, the “p34 protein and NEDD4-1 protein binding” value in data set [9] is “inhibited the p34 protein and the NEDD4-1 protein binding in a dose dependent manner”.

B1: p34 protein (construct not stated) (other, UniProt Q9UHV2 1-236, looked up)
chain: T1 sequence (Q9UHV2 1-236)
notes: also called purified p34 protein
For the molecule B1, the binding result with GST-PTEN fusion protein [10] is recorded as “no binding”.

B2: His-tagged p34 (other, UniProt Q9UHV2 1-236, looked up)
chain: T1 sequence (Q9UHV2 1-236)
notes: Expressed in cells and used as lysate; also called His-p34; not shown: His tag
For B2, the binding result (in data set [11]; with GST-PTEN fusion protein [12]) was “no binding” throughout.
